{"source": "patent US20030138419A1", "about": "“Recombinant antibody fusion proteins and methods for detection of apoptotic cells” (The University of Tennessee Research Corporation, priority 2001, published 2003)", "key": {"apoptotic Jurkat cells": {"tested_on": "apoptotic Jurkat cells", "assay": "Confocal immunofluorescence microscopy of scFv and annexin V binding to apoptotic Jurkat cells", "assay_type": "cell-based", "procedure": "(§1) Jurkat cells were harvested from culture and resuspended at a density of 10^6 /ml in RPMI 1640 containing 10% fetal bovine'serum (FBS). Apoptosis was induced for 12 hours with 1.0 μM staurosporine (Sigma Chemical Co. of St. Louis, Mo.), 2.0 μM camptothecin (Sigma), or 2.0 μg/ml anti-Fas antibody (clone 7C11; Beckman Coulter Inc. of Brea, Calif.). To inhibit apoptosis, parallel cultures were pre-incubated for 2 hours with 20 μM z-Val-Ala-Asp(Ome)-fluoromethylketone (z-VAD(Ome)-FMK) (Enzyme System Products of Livermore, Calif.). To inhibit membrane blebbing, parallel cultures were pre-incubated for 2 hours with 10 μM Y-27632 (Tocris of Ballwin, Mo.). At the end of the incubation period, 5×10^5 cells were aliquoted into tubes and stained for flow cytometry or confocal microscopy.\nCells were washed with HBSS and fixed with ice-cold 4% paraformaldehyde for 10 minutes. […] After incubation with the scFv, cells were washed once with HBSS/FBS and incubated with biotinylated annexin V (BD Biosciences) for 15 minutes on ice. Cells were then washed twice with HBSS/FBS and stained with streptavidin-conjugated Alexaflour 488 (Molecular Probes), Rhodamine Red-conjugated human serum IgG (Jackson Immunoresearch Laboratories) and the nucleic acid dye TO-PRO-3 (Molecular Probes). Following staining for 15 minutes on ice, cells were washed with HBSS/FBS and mounted onto poly-L-lysine-coated glass slides for viewing with a Zeiss LSM 510 laser scanning microscope (Carl Zeiss, Inc. of Thorwood, N.Y.).\nCells were washed with HBSS and fixed with ice-cold 4% paraformaldehyde for 10 minutes. […] After incubation with the scFv, cells were washed once with HBSS/FBS and incubated with biotinylated annexin V (BD Biosciences) for 15 minutes on ice. Cells were washed twice with HBSS/FBS and stained with streptavidin-conjugated Alexaflour 488 (Molecular Probes), Rhodamine Red-conjugated human serum IgG (Jackson Immunoresearch Laboratories) and the nucleic acid dye TO-PRO-3 (Molecular Probes). After a 15 minute incubation on ice, cells were washed with HBSS/FBS and mounted onto poly-L-lysine-coated glass slides for viewing with a Zeiss LSM 510 laser scanning microscope (Carl Zeiss Inc., Thorwood, N.Y.)."}, "Jurkat cells": {"tested_on": "Jurkat cells", "assay": "Flow cytometry of annexin V and scFv binding to Jurkat cells treated with staurosporine, camptothecin or anti-Fas (12 hr)", "assay_type": "cell-based", "procedure": "as §1\nCells were washed with 4.0 ml of ice-cold Hanks Balanced Salt Solution (Mediatech, Herndon, Va.) containing 1.0 mM CaCl2, 3% FBS, and 0.02% NaN3 (HBSS/FBS). […] 30,000 events were examined per sample on a FACSCalibur (BD Biosciences). The staining profiles were analyzed using FLOWJO™ software (Treestar, Inc. of San Carlos, Calif.)."}}, "note": "Residues, ends and D or L forms follow the SMILES beside them. *: point of attachment. Cbz = O=C(OCc1ccccc1)*; CH2F = FC*", "data": [{"smiles": "C[C@@H](N)[C@H]1CC[C@H](C(=O)Nc2ccncc2)CC1", "note": "[Y-27632]", "values": [{"measurement": "effect on binding of annexin V", "setting": "apoptotic Jurkat cells", "value": "did not affect"}, {"measurement": "blebbing and nuclear fragmentation", "setting": "apoptotic Jurkat cells; anti-Fas treated cells, 10 μM", "value": "inhibited"}, {"measurement": "effect on binding of the D56R/S76R scFv", "setting": "apoptotic Jurkat cells; anti-Fas treated cells, 10 μM", "value": "greatly reduced"}]}, {"smiles": "CC[C@@]1(O)C(=O)OCc2c1cc1n(c2=O)Cc2cc3ccccc3nc2-1", "note": "[camptothecin]", "values": [{"measurement": "cells observed to bind annexin V", "setting": "Jurkat cells; 12 hr incubation with the apoptotic stimulus", "value": "Approximately 29%"}]}, {"smiles": "COC(=O)C[C@H](NC(=O)[C@H](C)NC(=O)[C@@H](NC(=O)OCc1ccccc1)C(C)C)C(=O)CF", "note": "[z-VAD(OMe)-FMK, z-Val-Ala-Asp(Ome)-fluoromethylketone] (Cbz-Val-Ala-Asp(OMe)-CH2F)", "values": [{"measurement": "effect of pretreatment on binding of the D56R/S76R scFv", "setting": "Jurkat cells; 20 μM, 2 hours pre-incubation", "value": "largely eliminated"}, {"measurement": "effect of pretreatment on staining with annexin V", "setting": "Jurkat cells; 20 μM, 2 hours pre-incubation", "value": "decreased to near-background levels"}, {"measurement": "effect of pretreatment on staining of cells", "setting": "apoptotic Jurkat cells; cells treated with camptothecin or anti-Fas antibody", "value": "greatly reduced"}, {"measurement": "effect of pretreatment on annexin V and scFv binding", "setting": "apoptotic Jurkat cells; cells treated with staurosporine", "value": "reduces both annexin V and scFv binding to background levels"}]}]}
